{"source": "patent US11279733B2", "about": "“Peptide antibiotics” (priority 2017, dated 2022)", "key": {"HepG2 cells": {"system": "HepG2 cells", "experiment": "in vitro", "details": "human, 24 h", "how_it_was_run": "(§1)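 Viability is measured by resazurin reduction (5 μM, 2 h, 37 °C) after cells seeded at 4000 per well are treated with compound for 24 h.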"}, "in vitro [1]": {"experiment": "in vitro", "details": "human", "how_it_was_run": "as §1"}, "[2]": {"experiment": "In vitro nephrotoxicity, GGT release from primary human kidney cells", "format": "cell-based", "details": "pH 7.4", "how_it_was_run": "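Primary proximal tubule cells from normal human renal cortex were collagenase-isolated and grown serum-free to 80–90% confluence. GGT release was measured on samples with 2.5 mM γ-glutamyl-p-nitroanilide plus glycylglycine in 50 mM Tris, pH 8.2. p-Nitroanilide formation was read at 410 nm.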"}, "[3]": {"experiment": "In vitro nephrotoxicity, LDH release from primary human kidney cells", "format": "cell-based", "details": "pH 7.4"}, "[4]": {"system": "P. aeruginosa GN_043, PmxR", "details": "strain name as in Table 11", "how_it_was_run": "(§2)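 Mid-log cultures grown in Mueller Hinton broth at 37° C were tested by 2-fold broth microdilution at 5×10^5 CFU/mL final. Compounds were dissolved in water and tested over a final range of 32 to 0.015 μg/mL.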"}, "K. pneumoniae ATCC 13883": {"system": "K. pneumoniae ATCC 13883", "details": "ATCC 13883", "how_it_was_run": "as §2"}, "[5]": {"system": "K. pneumoniae GN_102 PmxR", "details": "GN 102 PmxR", "how_it_was_run": "as §2"}, "[6]": {"system": "P. aeruginosa GN_105, PmxR", "details": "GN 105, PmxR", "how_it_was_run": "as §2"}, "[7]": {"system": "K. pneumoniae ATCC BAA-2146, NDM-1 pos", "details": "ATCC BAA-2146", "how_it_was_run": "as §2"}, "[8]": {"system": "K. pneumoniae ATCC 700603, MDR", "details": "ATCC 700603", "how_it_was_run": "as §2"}, "P. aeruginosa ATCC 27853": {"system": "P. aeruginosa ATCC 27853", "details": "ATCC 27853", "how_it_was_run": "as §2"}, "A. baumannii GN_093 PmxR": {"system": "A. baumannii GN_093 PmxR", "details": "GN 093 PmxR", "how_it_was_run": "as §2"}, "[9]": {"system": "K. pneumoniae GN_106, PmxR", "details": "GN 106, PmxR", "how_it_was_run": "as §2"}, "A. baumannii ATCC 19606": {"system": "A. baumannii ATCC 19606", "details": "ATCC 19606", "how_it_was_run": "as §2"}, "E. coli ATCC 25922": {"system": "E. coli ATCC 25922", "details": "ATCC 25922", "how_it_was_run": "as §2"}, "[10]": {"system": "S. aureus ATCC 25923, MSSA", "details": "ATCC 25923", "how_it_was_run": "as §2"}, "HEK293 cells": {"system": "HEK293 cells", "experiment": "in vitro", "details": "human, 24 h", "how_it_was_run": "as §1"}, "in vitro [11]": {"experiment": "in vitro", "details": "human", "how_it_was_run": "as §1", "remark": "listed apart in the source"}}, "note": "Starred links: 1 amine or outer side, 2 acyl side, 3 side chain; linkers in the order of their positions; H or OH if unused. Positions of bridges follow the written chain, without caps; N, C: chain ends. Non-standard residues stand in square brackets, D forms with d. Residues, ends and D or L forms follow the SMILES beside them. *: point of attachment. Decanoyl(3R-OH) = CCCCCCC[C@@H](O)CC(=O)*; azaDab = NCCN(N[*:1])C(=O)[*:2]; dDab = NCC[C@@H](N)C(=O)O; Dab = NCC[C@H](N)C(=O)O"}
{"smiles": "CCCCCCC[C@@H](O)CC(=O)N[C@H](CCN)C(=O)N[C@H]1CCNC(=O)[C@H](CC(C)C)NC(=O)[C@H](CCN)NC(=O)N(CCN)NC(=O)[C@H](CC(C)C)NC(=O)[C@@H](Cc2ccccc2)NC(=O)[C@H](CCN)NC1=O", "note": "[compound 8641, 3(R)OH-nC9CO-D-Dab-cyc[L-Dab-L-DAB-D-Phe-L-Leu-azaDab-L-Dab-L-Leu]] ({Decanoyl(3R-OH)}-[dDab][Dab][Dab][dF]L[azaDab][Dab]L; lactam 2-C)", "values": [{"measurement": "CC50", "setting": "HepG2 cells", "value": "> 300", "unit": "µM"}, {"measurement": "CC50 at 24 h", "setting": "in vitro [1]", "value": "> 300", "unit": "µM"}, {"measurement": "CC50", "setting": "[2]", "value": "> 128", "unit": "µg/mL"}, {"measurement": "CC50", "setting": "[3]", "value": "> 128", "unit": "µg/mL"}, {"measurement": "MIC, P. aeruginosa FADDI-PA070, PmxR", "setting": "[4]", "value": 2, "unit": "µg/mL"}, {"measurement": "MIC K. pneumoniae ATCC 13883", "setting": "K. pneumoniae ATCC 13883", "value": 4, "unit": "µg/mL"}, {"measurement": "MIC K. pneumoniae Cl Koprana 10065 0661:1 PmxR", "setting": "[5]", "value": 2, "unit": "µg/mL"}, {"measurement": "MIC P. aeruginosa PA9704, PmxR", "setting": "[6]", "value": 2, "unit": "µg/mL"}, {"measurement": "MIC K. pneumoniae ATCC BAA-2146, NDM-1 pos", "setting": "[7]", "value": 8, "unit": "µg/mL"}, {"measurement": "MIC K. pneumoniae ATCC 700603, MDR", "setting": "[8]", "value": 4, "unit": "µg/mL"}, {"measurement": "MIC P. aeruginosa ATCC 27853", "setting": "P. aeruginosa ATCC 27853", "value": 2, "unit": "µg/mL"}, {"measurement": "MIC A. baumannii Cl Ptyela 10073 4512:2, PmxR", "setting": "A. baumannii GN_093 PmxR", "value": 32, "unit": "µg/mL"}, {"measurement": "MIC K. pneumoniae Cl 183-16357-20352, PmxR", "setting": "[9]", "value": 4, "unit": "µg/mL"}, {"measurement": "MIC A. baumannii ATCC 19606", "setting": "A. baumannii ATCC 19606", "value": 8, "unit": "µg/mL"}, {"measurement": "MIC E. coli ATCC 25922", "setting": "E. coli ATCC 25922", "value": 4, "unit": "µg/mL"}, {"measurement": "MIC S. aureus ATCC 25923, MSSA", "setting": "[10]", "value": 32, "unit": "µg/mL"}, {"measurement": "CC50", "setting": "HEK293 cells", "value": "> 300", "unit": "µM"}, {"measurement": "CC50 at 24 h", "setting": "in vitro [11]", "value": "> 300", "unit": "µM"}]}
